{"source": "patent US12606852B2", "about": "“Conversion of lignin-derived monomers to muconate by engineered pseudomonas” (Alliance for Sustainable Energy, LLC, priority 2021, dated 2026)", "key": {"[1]": {"biological_target": "T1, Paenibacillus sp. JJ-1b PraI (para-hydroxybenzoate-3-hydroxylase, PHBH), BAH79107, tagless, praI_EC gene SEQ ID NO: 3 (Paenibacillus sp., UniProt C4TP09)", "T1 construct": "His-tagged form only for crystallography", "T1 sequence (C4TP09 2-394)": "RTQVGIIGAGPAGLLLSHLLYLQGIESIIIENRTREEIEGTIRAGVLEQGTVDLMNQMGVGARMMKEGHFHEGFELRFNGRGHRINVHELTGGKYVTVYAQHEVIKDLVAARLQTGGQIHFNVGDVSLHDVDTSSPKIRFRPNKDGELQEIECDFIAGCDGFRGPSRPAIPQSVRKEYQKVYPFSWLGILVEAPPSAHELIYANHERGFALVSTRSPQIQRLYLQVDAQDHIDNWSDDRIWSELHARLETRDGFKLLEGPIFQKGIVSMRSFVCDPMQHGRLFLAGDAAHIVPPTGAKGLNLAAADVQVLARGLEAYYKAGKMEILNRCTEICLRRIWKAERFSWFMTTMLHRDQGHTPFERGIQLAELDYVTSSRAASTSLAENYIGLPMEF", "assay": "Steady-state kinetic analysis of PraI (hydroxylation of 4-hydroxybenzoate)", "format": "biochemical", "settings": "for kcat (NAD(P)H): air-saturated, 200 μM 4-hydroxybenzoate, pH 8, 25° C."}, "[2]": {"biological_target": "Pseudomonas putida KT2440 PobA (para-hydroxybenzoate-3-hydroxylase, PHBH), native, PP_3537, tagless, pobA_EC gene SEQ ID NO: 1 (Pseudomonas putida, UniProt Q88H28)", "sequence (Q88H28 1-395)": "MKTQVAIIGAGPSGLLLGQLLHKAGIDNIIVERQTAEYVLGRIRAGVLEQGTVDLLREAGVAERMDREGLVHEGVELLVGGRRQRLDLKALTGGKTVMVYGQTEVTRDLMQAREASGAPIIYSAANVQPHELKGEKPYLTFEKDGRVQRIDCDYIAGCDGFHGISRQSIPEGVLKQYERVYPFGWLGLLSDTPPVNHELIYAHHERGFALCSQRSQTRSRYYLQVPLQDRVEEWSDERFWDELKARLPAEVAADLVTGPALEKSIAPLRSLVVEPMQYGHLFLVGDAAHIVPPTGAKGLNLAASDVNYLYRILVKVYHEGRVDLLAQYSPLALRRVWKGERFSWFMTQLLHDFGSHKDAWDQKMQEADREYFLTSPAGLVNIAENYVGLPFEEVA", "assay": "Steady-state kinetic analysis of PobA (hydroxylation of 4-hydroxybenzoate)", "format": "biochemical", "settings": "for kcat (NAD(P)H): NADPH varied, air-saturated, 200 μM 4-hydroxybenzoate, pH 8, 25° C."}, "[3]": {"tested_on": "Pseudomonas aeruginosa PHBH (para-hydroxybenzoate-3-hydroxylase)", "settings": "reported value, natively produced PHBH, cited from earlier work"}, "[4]": {"tested_on": "Pseudomonas fluorescens PHBH (para-hydroxybenzoate-3-hydroxylase)", "settings": "read-out: KM^NADPH; reported value, natively produced PHBH; cited from earlier work"}}, "note": "Where “and” joins values, the source holds several entries; their conditions need not be identical. Equal entries are not always repeated. Where two headings read alike, the source gives them in different places."}
{"molecule": "O=C(O)c1ccc(O)cc1", "note": "[4-hydroxybenzoate]", "values": [{"measurement": "Km", "setting": "[1]; read-out: KM (4-hydroxybenzoate), pH 8", "result": "16 ± 1", "unit": "µM"}]}
{"molecule": "NC(=O)C1=CN([C@@H]2O[C@H](COP(=O)(O)OP(=O)(O)OC[C@H]3O[C@@H](n4cnc5c(N)ncnc54)[C@H](O)[C@@H]3O)[C@@H](O)[C@H]2O)C=CC1", "note": "[NADH]", "values": [{"measurement": "utilization as reducing equivalent", "setting": "[2]; O2 consumption in mixture containing PobA and 4HB", "result": "unreactive"}, {"measurement": "kcat (NAD(P)H)", "setting": "[1]; NADH varied, NADH detection (340 nm)", "result": "25 ± 2", "unit": "s⁻¹"}, {"measurement": "kcat (NAD(P)H)", "setting": "[1]; NADH varied, O2 detection (oxygraph)", "result": "22 ± 2", "unit": "s⁻¹"}, {"measurement": "substrate specificity for NADH (slightly lowered)", "setting": "[1]; NADH, relative to NADPH", "result": "about 60%"}]}
{"molecule": "NC(=O)C1=CN([C@@H]2O[C@H](COP(=O)(O)OP(=O)(O)OC[C@H]3O[C@@H](n4cnc5c(N)ncnc54)[C@H](OP(=O)(O)O)[C@@H]3O)[C@@H](O)[C@H]2O)C=CC1", "note": "[NADPH]", "values": [{"measurement": "kcat (NAD(P)H)", "setting": "[2]; NADPH detection (340 nm)", "result": "50 ± 5", "unit": "s⁻¹"}, {"measurement": "kcat (NAD(P)H)", "setting": "[2]; O2 detection (oxygraph)", "result": "47 ± 4", "unit": "s⁻¹"}, {"measurement": "kcat (NAD(P)H)", "setting": "[1]; NADPH varied, NADPH detection (340 nm)", "result": "27 ± 2", "unit": "s⁻¹"}, {"measurement": "kcat (NAD(P)H)", "setting": "[1]; NADPH varied, O2 detection (oxygraph)", "result": "23 ± 2", "unit": "s⁻¹"}, {"measurement": "difference in substrate specificity towards NADPH, PobA and PraI", "setting": "[1]; average, PraI compared with PobA, different combination of the reactants", "result": "≤ two-fold"}, {"measurement": "Km", "setting": "[3]; read-out: KM^NADPH", "result": 23, "unit": "µM"}, {"measurement": "Km", "setting": "[4]", "result": 50, "unit": "µM"}]}
{"molecule": "O=O", "note": "[O2, molecular oxygen]", "values": [{"measurement": "kcat (O2)", "setting": "[2]; pH 8", "result": "53 ± 5", "unit": "s⁻¹"}, {"measurement": "Km", "setting": "[2]; pH 8, read-out: KM (O2)", "result": "70 ± 5", "unit": "µM"}, {"measurement": "kcat (O2)", "setting": "[1]; pH 8", "result": "25 ± 2 s⁻¹ and 22 ± 2 s⁻¹"}, {"measurement": "Km", "setting": "[1]; pH 8, read-out: KM (O2)", "result": "68 µM and 54 µM"}, {"measurement": "Km", "setting": "[3]; read-out: KM^oxygen", "result": 37, "unit": "µM"}]}
